Source: EP0182152B1, “Antitumor antibiotics (LL-E33288 Complex)” (AMERICAN CYANAMID COMPANY, priority 1984, dated 1986)

Columns and labels:
melanotic melanoma B16 = experiment: Melanotic Melanoma B16 Test; assay type: in vivo, BDF1 mice; details: Table X, control value not given
Excerpt: (§1) Certain in vivo testing systems and protocols have been developed by the National Cancer Institute for testing compounds to determine their suitability as anti-neoplastic agents. These have been reported in "Cancer Chemotherapy Reports", Part III, Vol. 3, No. 2 (1972), Geran, et al. These protocols have established standardized screening tests which are generally followed in the field of testing for antitumor agents. Of these systems, lymphocytic leukemia P388, melanotic melanoma B16, L1210 leukemia and colon 26 adenocarcinoma are particularly significant to the present invention. These neoplasms are utilized for testing as transplantable tumors in mice. Generally, significant anti-tumor activity, shown in these protocols by a percentage increase of mean survival times of the treated animals (T) over the control animals (C), is indicative of similar results in human leukemias and solid tumors.
The animals used were BDF1 mice, all of the same sex, weighing a minimum of 17 g and all within a 3 g weight range. There are normally 6 animals per test group. A 1 g portion of melanotic melanoma β16 tumor was homogenized in 10 ml of cold balanced salt solution and a 0.5 ml aliquot of the homogenate was implanted intraperitoneally into each of the test mice. LL-E33288 antibiotics were tested in the β16 system both as the individual β1-Br and γ1-Br components and as a complex of all components (Bromo-complex). The test compounds were administered intraperitioneally on days 1 through 9 (relative to tumor inoculation) at various doses. The mice were weighed and survivors recorded on a regular basis for 60 days. The median survival time and the ratio of survival time for treated (T)/control (C) animals were calculated. The positive control compounds were Cisplatin or Adriamycin. The results of this test appear in Table V. If T/C X 100 (%) is 125 or over, the tested compound is considered to have significant anti-tumor activity.
(§2) In the same manner, the following iodo-components were tested for antineoplastic activity.

[1] = system: lymphocytic leukemia L1210; experiment: Lymphocytic Leukemia L1210 Test; assay type: in vivo, BDF1 mice; details: Table XI, control 9 days
Excerpt: as §1
The animals used were BDF1 mice, all of one sex, weighing a minimum of 17 g and all within a 3 g weight range. There were 6 mice in each test group and 18 in control groups. The tumor transplant was by intraperitoneal injection of 0.5 ml of lymphocytic leukemia L1210 at a concentration of 10^5 cells per mouse. LL-E33288 antibiotics were tested in the L1210 system both as the individual β1-Br component and as a complex of all components (Bromo-complex). The test compounds were administered on days 1, 5 and 9 or days 1 through 9 (relative to tumor inoculation) at various doses. The mice were weighed and survivors recorded on a regular basis for 30 days. The median survival time and the ratio of survival time for treated (T)/control (C) animals were calculated. The positive control compound was 1,4-dihydroxy-5,8-bis[[2-(2-hydroxyethylamino)ethyl]amino]anthraquinone dihydrochloride or Cisplatin given intraperitoneally at the indicated dose. If T/C X 100 (%) is 125 or over, the tested compound is considered to have significant anti-tumor activity.
as §2

[2] = system: lymphocytic leukemia P388; experiment: Lymphocytic Leukemia P388 Test; assay type: in vivo, BDF1 mice; details: Table IX
Excerpt: as §1
The animals used were BDF1 mice, all of one sex, weighing a minimum of 17 g and all within a 3 g weight range. There were 5 or 6 mice per test group. The tumor transplant was by intraperitoneal injection of 0.5 ml of dilute ascitic fluid containing 10^6 cells of lymphocytic leukemia P388. LL-E33288 antibiotics were tested in the P388 system both as the individual β1-Br and […] components and as a complex of all components (Bromo-complex). The test compounds were administered intrapertioneally at a volume of 0.5 ml in 0.2% Klucel in normal saline on days 1, 5 and 9 (relative to tumor inoculation) at the indicated doses. The mice were weighed and the survivors recorded on a regular basis for 30 days. The median survival time and the ratio of survival time for treated (T)/control (C) animals were calculated. The positive control compound was Cisplatin given as an intraperitioneal injection in 0.5 ml of 0.2% Klucel on days 1, 5 and 9 at the indicated doses.
If T/C X 100 (%) is 125 or over, the tested compound is considered to have significant anti-tumor activity.
as §2

Colon 26 tumor = experiment: Colon 26 Adenocarcinoma Test; assay type: in vivo, CD2F1 female mice; details: Table XII, control 18.5 days
Excerpt: as §1
The animals used were CD2F1 female mice weighing a minimum of 17 g and all within a 3 g weight range. There were 5 or 6 mice per test group with three groups of 5 or 6 animals used as untreated controls for each test. The tumor implant was by intraperitoneal (or subcutaneous) injection of 0.5 ml of a 2% Colon 26 tumor brei in Eagle's MEM medium containing antibiotics. LL-E33288 antibiotics were tested in the Colon 26 system as a complex (Bromo-complex) of all components. The test compounds were administered intraperitoneally on days 1, 5 and 9 (relative to tumor implant doses). The mice were weighed and deaths recorded on a regular basis for 30 days. The median survival times for treated (T)/control (C) animals were calculated. The positive control compound was Cisplatin. If T/C X 100 (%) is 130 or over, the tested compound is considered to have significant anti-tumor activity.
as §2

[3] = Test 1, dose .00015 mg/kg, control 13 days
[4] = Test 1, dose .0003 mg/kg, control 13 days
[5] = Test 1, dose .0006 mg/kg, control 13 days
[6] = Test 1, dose .00125 mg/kg, control 13 days
[7] = Test 1, dose .0025 mg/kg, control 13 days
[8] = Test 1, dose .005 mg/kg, control 13 days
[9] = Test 2, dose - .00125 mg/kg, control 11 days
[10] = Test 2, dose .00015 mg/kg, control 11 days
[11] = Test 2, dose .0003 mg/kg, control 11 days
[12] = Test 2, dose .0006 mg/kg, control 11 days
[13] = Test 2, dose .0025 mg/kg, control 11 days
[14] = Test 2, dose .005 mg/kg, control 11 days
[15] = Test 2, dose .01 mg/kg, control 11 days

With `CCN[C@H]1CO[C@@H](O[C@H]2[C@H](O[C@H]3C#CC=CC#C[C@@]4(O)CC(=O)C(NC(=O)OC)=C3/C4=C\CSSSC)O[C@H](C)[C@@H](NO[C@H]3C[C@H](O)[C@H](SC(=O)c4c(C)c(I)c(O[C@@H]5O[C@@H](C)[C@H](O)[C@@H](OC)[C@H]5O)c(OC)c4OC)[C@@H](C)O3)[C@@H]2O)C[C@@H]1OC` (stereo in doubt) [LL-E33288γ1-I] the “Median Survival” value (melanotic melanoma B16; dose .00007 mg/kg) was 30.5 days, the “T/C x 100” value (melanotic melanoma B16; dose .00007 mg/kg) was 179% and the “Median Survival” value (melanotic melanoma B16; dose .00015 mg/kg) was 33.5 days. The “T/C x 100” value (melanotic melanoma B16; dose .00015 mg/kg) was 197%, the “Median Survival” value (melanotic melanoma B16; dose .0003 mg/kg) was 35.5 days and the “T/C x 100” value (melanotic melanoma B16; dose .0003 mg/kg) was 209%. For the same compound, the “Median Survival” value (melanotic melanoma B16; dose .0006 mg/kg) was 42.5 days, the “T/C x 100” value (melanotic melanoma B16; dose .0006 mg/kg) was 250% and the “Median Survival” value (melanotic melanoma B16; dose .00125 mg/kg) was 27 days. The “T/C x 100” value (melanotic melanoma B16; dose .00125 mg/kg) was 159%, the “Median Survival” value (melanotic melanoma B16; dose .0025 mg/kg) was 26.5 days and the “T/C x 100” value (melanotic melanoma B16; dose .0025 mg/kg) was 156%. For the same compound, the “Median Survival” value ([1]; dose .0006 mg/kg) was 10 days, the “T/C x 100” value ([1]; dose .0006 mg/kg) was 111% and the “Median Survival” value ([1]; dose .0012 mg/kg) was 10.5 days. The “T/C x 100” value ([1]; dose .0012 mg/kg) was 117%, the “Median Survival” value ([1]; dose .0025 mg/kg) was 11 days and the “T/C x 100” value ([1]; dose .0025 mg/kg) was 122%. The “Median Survival” value ([1]; dose .005 mg/kg) was 14 days, the “T/C x 100” value ([1]; dose .005 mg/kg) was 156% and the “Median Survival” value ([1]; dose .01 mg/kg) was 8 days. The “T/C x 100” value ([1]; dose .01 mg/kg) was 89%, the “Median Survival” value [2, 3] was 15 days and the “T/C x 100” value [2, 3] was 115%. The “Median Survival” value [2, 4] was 15.5 days, the “T/C x 100” value [2, 4] was 119% and the “Median Survival” value [2, 5] was 18 days. For the same compound, the “T/C x 100” value [2, 5] was 138%, the “Median Survival” value [2, 6] was 18.5 days and the “T/C x 100” value [2, 6] was 142%. The “Median Survival” value [2, 7] was 22 days, the “T/C x 100” value [2, 7] was 169% and the “Median Survival” value [2, 8] was over 25.5 days. The “T/C x 100” value [2, 8] was over 196%, the “Median Survival” value [2, 9] was 18.5 days and the “T/C x 100” value [2, 9] was 168%. The “Median Survival” value [2, 10] was 14 days, the “T/C x 100” value [2, 10] was 127% and the “Median Survival” value [2, 11] was 14 days. The “T/C x 100” value [2, 11] was 127%, the “Median Survival” value [2, 12] was 16 days and the “T/C x 100” value [2, 12] was 145%. The “Median Survival” value [2, 13] was 22.5 days, the “T/C x 100” value [2, 13] was 205% and the “Median Survival” value [2, 14] was 18 days. For the same compound, the “T/C x 100” value [2, 14] was 164%, the “Median Survival” value [2, 15] was 11 days and the “T/C x 100” value [2, 15] was 100%. For the same compound, the “Median Survival” value (Colon 26 tumor; dose ,0006 mg/kg) was 23.5 days, the “T/C x 100” value (Colon 26 tumor; dose ,0006 mg/kg) was 127% and the “Median Survival” value (Colon 26 tumor; dose .00007 mg/kg) was 17 days. For the same compound, the “T/C x 100” value (Colon 26 tumor; dose .00007 mg/kg) was 92%, the “Median Survival” value (Colon 26 tumor; dose .00015 mg/kg) was 17.5 days and the “T/C x 100” value (Colon 26 tumor; dose .00015 mg/kg) was 95%. The “Median Survival” value (Colon 26 tumor; dose .0003 mg/kg) was 20 days, the “T/C x 100” value (Colon 26 tumor; dose .0003 mg/kg) was 108% and the “Median Survival” value (Colon 26 tumor; dose .00125 mg/kg) was 22.5 days. For the same compound, the “T/C x 100” value (Colon 26 tumor; dose .00125 mg/kg) was 122%, the “Median Survival” value (Colon 26 tumor; dose .0025 mg/kg) was 27 days and the “T/C x 100” value (Colon 26 tumor; dose .0025 mg/kg) was 146%. For the same compound, the “Median Survival” value (Colon 26 tumor; dose .005 mg/kg) was 25.5 days, the “T/C x 100” value (Colon 26 tumor; dose .005 mg/kg) was 138% and the “Median Survival” value (Colon 26 tumor; dose .01 mg/kg) was 11 days. For the same compound, the “T/C x 100” value (Colon 26 tumor; dose .01 mg/kg) was 59%.
